The results in this text go back to PubChem BioAssay (NCI).

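In this assay, cells in 96-well plates receive the compound at five concentrations for 48 hours. Endpoints are linearly interpolated between the surrounding concentrations. TGI: total growth inhibition.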 Bounds are passed on as bounds.

In general, TGI refers to the concentration at which net growth stops.

Test systems include SK-MEL-2 melanoma; SN12C renal; NCI/ADR-RES ovarian; SK-OV-3 ovarian; RXF 393 renal; 786-0 renal; LOX IMVI melanoma; TK-10 renal; HCT-15 colon; COLO 205 colon; SF-295 CNS.
What all share (assay): DTP human tumour cell line panel, 48 h

Regarding `COc1ccccc1Cn1c2c(c3cc(O)ccc31)C(=O)c1ccccc1C2=O`, the TGI in the experiment with SK-MEL-2 melanoma was greater than 100 µM; in the experiment on SN12C renal it was greater than 100 µM; with NCI/ADR-RES ovarian it was 40.4 µM; in the experiment with SK-OV-3 ovarian, 10 µM; with RXF 393 renal it was 14.3 µM; with 786-0 renal, 45.5 µM. The TGI is greater than 100 µM in the experiment on LOX IMVI melanoma; greater than 100 µM in the experiment on TK-10 renal; greater than 100 µM in the experiment with HCT-15 colon; greater than 100 µM in the experiment on COLO 205 colon; 42.2 µM in the experiment on SF-295 CNS.
Consider `CCC1(c2ccc(OC)c(OC)c2)CCN2C(=O)C(O)CC21` (stereo not drawn), for which the TGI with SK-MEL-2 melanoma, in the experiment with SN12C renal, in the experiment with NCI/ADR-RES ovarian, in the experiment on SK-OV-3 ovarian, with RXF 393 renal and in the experiment on 786-0 renal was greater than 100 µM each time. Further, the TGI in the experiment on LOX IMVI melanoma, in the experiment on TK-10 renal, in the experiment on HCT-15 colon, in the experiment with COLO 205 colon and in the experiment on SF-295 CNS was greater than 100 µM each time.
With `CC(=O)Nc1ccc2c(c1)nc1c3ccccc3ccn21`, the TGI with SK-MEL-2 melanoma, in the experiment with SN12C renal, in the experiment with NCI/ADR-RES ovarian, in the experiment with SK-OV-3 ovarian, in the experiment on RXF 393 renal and in the experiment with 786-0 renal was greater than 100 µM in each case. The TGI in the experiment on LOX IMVI melanoma, in the experiment with TK-10 renal, in the experiment with HCT-15 colon, in the experiment on COLO 205 colon and in the experiment with SF-295 CNS was greater than 100 µM in each case.
Consider `CN1C2CCC1C(CO)C(=O)C2` (stereo not drawn), for which the TGI is greater than 100 µM with SK-MEL-2 melanoma; greater than 100 µM in the experiment with NCI/ADR-RES ovarian; greater than 100 µM in the experiment on SK-OV-3 ovarian; greater than 100 µM in the experiment on RXF 393 renal; greater than 100 µM in the experiment on LOX IMVI melanoma; 59.3 µM in the experiment with TK-10 renal. For the same compound, the results for the TGI in the experiment on HCT-15 colon, in the experiment with COLO 205 colon and in the experiment on SF-295 CNS were 75.3 µM, 32.8 µM and greater than 100 µM, respectively.
Take `OC(CCN1CCN(CCOC(c2ccc(F)cc2)c2ccc(F)cc2)CC1)c1ccc(Br)cc1` (stereo not drawn): the TGI is 18.8 µM with SK-MEL-2 melanoma; 7.12 µM in the experiment on SN12C renal; 7.67 µM in the experiment with NCI/ADR-RES ovarian; 19.8 µM in the experiment on SK-OV-3 ovarian; 10 µM with RXF 393 renal; 7.07 µM with 786-0 renal. Moreover, the TGI in the experiment on LOX IMVI melanoma stood at 4.07 µM; in the experiment on TK-10 renal, 20.9 µM; in the experiment on HCT-15 colon it was 8.25 µM; in the experiment on COLO 205 colon it was 3.84 µM; with SF-295 CNS it was 9.73 µM.
For the compound `O=C1CCC(CCc2nc3ccccc3[nH]2)(c2ccccc2)C(=O)N1` (stereo not drawn), the TGI with SK-MEL-2 melanoma, in the experiment on SN12C renal, with NCI/ADR-RES ovarian, in the experiment with SK-OV-3 ovarian, in the experiment with RXF 393 renal and in the experiment on 786-0 renal was greater than 100 µM throughout. Also, the TGI with LOX IMVI melanoma, in the experiment with TK-10 renal, in the experiment with HCT-15 colon, in the experiment on COLO 205 colon and in the experiment on SF-295 CNS was greater than 100 µM each time.
As to `Cc1nn(C(=O)c2ccccc2O)c2c1C(c1ccc([N+](=O)[O-])cc1)SC(N)=N2` (stereo not drawn), the TGI in the experiment with SK-MEL-2 melanoma, with SN12C renal, in the experiment on NCI/ADR-RES ovarian, in the experiment on SK-OV-3 ovarian, with RXF 393 renal and in the experiment with 786-0 renal was greater than 10 µM in each case. In addition, the TGI in the experiment on LOX IMVI melanoma, in the experiment on TK-10 renal, in the experiment with HCT-15 colon, with COLO 205 colon and with SF-295 CNS was greater than 10 µM each time.
On to `C/C(=C\CO)CC[C@@H]1[C@@]2(C)CCCC(C)(C)[C@@H]2CC[C@@]1(C)O`, for which the TGI in the experiment with SK-MEL-2 melanoma is 31.4 µM; with SN12C renal, 33.8 µM; in the experiment with NCI/ADR-RES ovarian, 31.9 µM; in the experiment on SK-OV-3 ovarian it was 57.1 µM; with RXF 393 renal, 35 µM; with 786-0 renal it was 39.8 µM. Besides, the TGI with LOX IMVI melanoma amounted to 30.2 µM; in the experiment on TK-10 renal, 31.3 µM; in the experiment with HCT-15 colon it was 33.7 µM; with COLO 205 colon it was 32.7 µM; with SF-295 CNS, 33.7 µM.
As for `CCCCCc1cc(CCCC)sc1-c1ccco1`, the TGI in the experiment with SK-MEL-2 melanoma, in the experiment with SN12C renal, in the experiment on NCI/ADR-RES ovarian, in the experiment on SK-OV-3 ovarian, with RXF 393 renal and with 786-0 renal was greater than 100 µM in each case. For the same compound, the TGI in the experiment on LOX IMVI melanoma, in the experiment on TK-10 renal, in the experiment with HCT-15 colon, in the experiment on COLO 205 colon and with SF-295 CNS was greater than 100 µM each time.
`Brc1ccc2[nH]cc(-c3csc(-c4c[nH]c5ccc(Br)cc45)n3)c2c1`: the TGI in the experiment on SK-MEL-2 melanoma is 3.81 µM; in the experiment on SN12C renal it was 10.3 µM; in the experiment on NCI/ADR-RES ovarian, 6.29 µM; in the experiment with SK-OV-3 ovarian it was 8.09 µM; in the experiment with RXF 393 renal, 6.13 µM; in the experiment on 786-0 renal it was 3.49 µM. Besides, the TGI with LOX IMVI melanoma amounted to 3.21 µM; in the experiment on TK-10 renal, 8.19 µM; in the experiment on HCT-15 colon, 4.5 µM; with COLO 205 colon, 3.42 µM; with SF-295 CNS it was 6.32 µM.
In the case of `O=c1cccc2n1CC1CNCC2C1` (stereo not drawn), the TGI in the experiment with SK-MEL-2 melanoma, in the experiment with SN12C renal, in the experiment with NCI/ADR-RES ovarian, with SK-OV-3 ovarian, in the experiment with RXF 393 renal and in the experiment with 786-0 renal was greater than 100 µM each time. The TGI in the experiment with LOX IMVI melanoma, with TK-10 renal, with HCT-15 colon, in the experiment with COLO 205 colon and with SF-295 CNS was greater than 100 µM in each case.
For the compound `Cc1ccc(S(=O)(=O)N2CCc3cc(O)c([N+](=O)[O-])cc32)cc1`, the TGI in the experiment with SK-MEL-2 melanoma, in the experiment with SN12C renal, with NCI/ADR-RES ovarian, with SK-OV-3 ovarian, in the experiment on RXF 393 renal and in the experiment on 786-0 renal was greater than 100 µM in each case. In addition, the TGI in the experiment with LOX IMVI melanoma, in the experiment with TK-10 renal, in the experiment with HCT-15 colon, with COLO 205 colon and with SF-295 CNS was greater than 100 µM each time.
Regarding `CCOC(=O)C(NC(=O)CC)(Nc1ccccc1F)C(F)(F)F` (stereo not drawn), the TGI in the experiment on SK-MEL-2 melanoma, in the experiment with SN12C renal, in the experiment with NCI/ADR-RES ovarian, in the experiment with SK-OV-3 ovarian, in the experiment on RXF 393 renal and with LOX IMVI melanoma was greater than 100 µM throughout. Also, the TGI with TK-10 renal, with HCT-15 colon, with COLO 205 colon and with SF-295 CNS was greater than 100 µM throughout.
Regarding `O=c1ccn([C@@H]2C=C(CO)[C@@H](O)[C@H]2O)c(=O)[nH]1`, the TGI in the experiment with SK-MEL-2 melanoma, with SN12C renal, with NCI/ADR-RES ovarian, in the experiment on SK-OV-3 ovarian, in the experiment on RXF 393 renal and in the experiment on LOX IMVI melanoma was greater than 625 µM throughout. Moreover, the TGI with HCT-15 colon, with COLO 205 colon and in the experiment with SF-295 CNS was greater than 625 µM throughout.
Turning to `N#Cc1ccnc(C(=O)N2CCCC2C(=O)O)c1` (stereo not drawn), the TGI with SK-MEL-2 melanoma, in the experiment with SN12C renal, in the experiment with NCI/ADR-RES ovarian, in the experiment on RXF 393 renal, in the experiment on 786-0 renal and with LOX IMVI melanoma was greater than 100 µM each time. Further, the TGI in the experiment on TK-10 renal, in the experiment with HCT-15 colon, in the experiment on COLO 205 colon and with SF-295 CNS was greater than 100 µM each time.
On to `O=c1[nH]nc(-c2ccc([N+](=O)[O-])cc2)[nH]1`, for which the TGI in the experiment with SK-MEL-2 melanoma, in the experiment with SN12C renal, in the experiment on NCI/ADR-RES ovarian, in the experiment with RXF 393 renal, in the experiment with 786-0 renal and in the experiment with LOX IMVI melanoma was greater than 100 µM in each case. Further, the TGI with TK-10 renal, in the experiment with HCT-15 colon, in the experiment on COLO 205 colon and in the experiment with SF-295 CNS was greater than 100 µM in each case.
With `COc1cc2c3cc1Oc1cc(ccc1O)C[C@@H]1c4c(cc(OC)c(O)c4Oc4ccc(cc4)C[C@@H]3[N+](C)(C)CC2)CC[N+]1(C)C`, the total growth inhibition concentration (TGI) with SK-MEL-2 melanoma was greater than 100 µM; in the experiment with SN12C renal, greater than 100 µM; with NCI/ADR-RES ovarian, greater than 100 µM; in the experiment on RXF 393 renal, 47 µM; in the experiment on 786-0 renal it was greater than 100 µM; in the experiment with LOX IMVI melanoma it was 42.5 µM. For the same compound, the TGI was greater than 100 µM in the experiment with TK-10 renal, greater than 100 µM in the experiment with HCT-15 colon, greater than 100 µM in the experiment on COLO 205 colon and 50.5 µM in the experiment with SF-295 CNS.
`CC1=NN(c2cccc(Cl)c2)C2(C1=Cc1ccc(N(C)C)cc1)C(Cl)C(=O)N2c1nc2ccccc2s1` (stereo not drawn): the TGI with SK-MEL-2 melanoma was greater than 100 µM; in the experiment on NCI/ADR-RES ovarian it was greater than 100 µM; in the experiment with SK-OV-3 ovarian, greater than 100 µM; with RXF 393 renal, 46 µM; with 786-0 renal, greater than 100 µM; in the experiment with LOX IMVI melanoma, greater than 100 µM. Also, the TGI in the experiment on TK-10 renal, with HCT-15 colon and in the experiment on SF-295 CNS was greater than 100 µM in each case.
Regarding `CC(C)NC(=O)OCc1c(COC(=O)NC(C)C)n(C)c2c1ccc1cc(Cl)c(Cl)cc12`, the TGI with SK-MEL-2 melanoma is 32.2 µM; in the experiment on NCI/ADR-RES ovarian, 36.8 µM; with SK-OV-3 ovarian, 63.3 µM; in the experiment on RXF 393 renal, 25 µM; in the experiment on 786-0 renal it was 20.5 µM; with LOX IMVI melanoma, 20.9 µM. For the same compound, the TGI is 19.4 µM with TK-10 renal, 28.7 µM in the experiment with HCT-15 colon, 22.8 µM in the experiment with COLO 205 colon and 30.8 µM with SF-295 CNS.
